In patent publication US20240307453A1, “METHODS FOR CONTROLLING BLEEDING IN A SUBJECT AFFLICTED WITH HERMANSKY PUDLAK SYNDROME USING PLATELET DERIVATIVE COMPOSITIONS” (Cellphire, Inc., priority 2023, published 2024):

How the values were obtained:
[1] = tested on: fibrinogen, GPIIIa (CD61), complexed GPIIb/IIIa (CD41); conditions: 5 mM EDTA
Experimental: EDTA (Sigma Aldrich, sigmaaldrich.com) was added to one of the duplicates to achieve a 5 mM concentration. […] Stain volumes were as follows: Unstained: 10 μl of sample and 20 μl HMTA, 9F9: 10 μl of sample, 5 μl antibody, and 15 μl HMTA, CD41: 5 μl of sample and 12 μl antibody, and CD61: 10 μl of sample, 10 μl antibody, and 10 μl HMTA. Stained samples were incubated for 20 minutes for 9F9, CD61, and vWF and 5 minutes for CD41. 470 μl of the samples were added to 9F9 and CD61 stains and 233 μl of the samples were added to CD41 stains. 100 μl of each sample was transferred to wells in a 96-well plate. All samples were measured using the Quanteon flow cytometer.

washed platelets (WPS) = test: Mixed aggregation of washed FPH with washed platelets (WPS) with and without EDTA and agonists; type: cell-based, human; conditions: 5 mM EDTA
Experimental: This was repeated 5 times. […] In one of the duplicates, EDTA was added to achieve a 5 mM concentration. […] These samples were prepared immediately prior to running on the PAP-8E Platelet Aggregometer. The different agonist were prediluted in HMTA according: arachidonic acid (Helena Biosciences, Helena-biosciences.com) 1:10 in HMTA, TRAP-6 (Tocris, tocris.com) by adding 7.5 μl to 292.5 μl HMTA.
The PAP-8E Platelet Aggregometer was turned on and samples were incubated with stirring for 10 minutes at 37° C. for all mixed aggregation experiments. The samples with HMTA was used as a control for agonists used in aggregation. The following agonists were used to induce aggregation in samples: 10 μg/ml collagen (Helena Biosciences, Helena-biosciences.com), 10U/ml thrombin (Helena Biosciences, Helena-biosciences.com), 10 μg/ml arachidonic acid, and 10 μM TRAP-6. 225 μl of the samples were added to cuvettes by reverse pipetting and inserted in the channels. Cuvettes were transferred from the warming wells to the testing wells. The test was started and 25 μl of each agonist was added to the appropriate cuvettes when the timer for the channel reached 8:00 minutes. HMTA was added in place of the agonist to the first channel in each module. Once measurements were completed for each agonist, the samples were transferred to a microcentrifuge tube and AcT count was taken. […]

FXa = target: T1, FXa (Homo sapiens, UniProt P00742); test: FPH thrombin generation response to Factor X blocking by rivaroxaban; type: biochemical; conditions: dose dependent blocking of Factor X
T1 construct: tissue Octophrama (so in the source); host or cells: Octaplas plasma mixed with FPH
T1 sequence (P00742 235-488 limits assumed): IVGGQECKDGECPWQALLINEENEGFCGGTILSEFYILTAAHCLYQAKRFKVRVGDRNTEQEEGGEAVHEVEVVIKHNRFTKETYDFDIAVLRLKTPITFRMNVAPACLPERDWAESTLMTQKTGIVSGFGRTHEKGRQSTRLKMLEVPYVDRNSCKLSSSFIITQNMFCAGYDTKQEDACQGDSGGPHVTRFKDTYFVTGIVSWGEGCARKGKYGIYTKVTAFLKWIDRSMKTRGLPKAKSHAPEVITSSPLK
T1 sequence (P00742 41-179 limits assumed): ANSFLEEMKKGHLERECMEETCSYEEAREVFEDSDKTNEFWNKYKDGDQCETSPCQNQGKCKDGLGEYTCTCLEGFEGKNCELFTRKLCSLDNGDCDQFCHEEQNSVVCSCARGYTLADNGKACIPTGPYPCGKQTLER
Experimental: Rivaroxaban (Cayman Chemical, caymanchem.com) was diluted in TGA dilution buffer to 0 μg/ml, […], 350 ng/ml, and 70 ng/ml. 60 mM GPRP (BACHEM, bachem.com), thrombin (Sigma Aldrich, sigmaaldrich.com) and Octoplas (Octophrama, octopharma.com) were thawed according to manufacturer's guidelines. CLARIOstarPlus was used to perform TGA. A master mix of Octaplas, PRP reagent (Diagnostica Stago, Cat. No. 86196), and GPRP was prepared in a ratio of 68:15:5, respectively. Flu substrate and Fluo-buffer were combined according to manufacturer's guidelines to create FluCa (Diagnostica Stago, stago.com). Master mix and FluCa solution were placed in the 37° C. air incubator with agitation for 45±5 minutes. […] 10 μl of each sample was dispensed into selected wells of a 96-well plate (Corning, corning.com) by reverse pipetting. TGA dilution buffer for thrombin was used in the thrombin standard ladder. […] CLARIOstarPlus injectors 1 and 2 were primed with master mix and FluCa solution with 250 μl, then the injector was placed in the active position. The CLARIOstarPlus TGA program was loaded with parameters for TGA assay with injectors set to add 90 μl of master mix and 40 μl of FluCa solution to each well. Plate was inserted to be read.

[2] = tested on: FPH aggregation (GpIIbIIIa); conditions: 5 mM MgCl2, FPH 250 k/μL, tirofiban present
Experimental: A master mix of FPH or APU was prepared by combining cells dosed at 250 k/μL with HMTA to arrive at enough volume to fill 225 μl of sample into 8 cuvettes, plus extra buffer volume if necessary. 225 μl of master mix was transferred to cuvettes as specified along with a magnetic stir bar in each cuvette. […] The groups tested were as follows. (+) indicates the presence while (−) indicates the absence of the specified reagent: • 0.32 mM DMSO−/5 mM Mg−/1 mM Tiro− (negative control) • 0.32 mM DMSO+/5 mM Mg−/1 mM Tiro− (negative control) • 0.32 mM DMSO−/5 mM Mg+/1 mM Tiro− (positive control) • 0.32 mM DMSO+/5 mM Mg+/1 mM Tiro− (positive control) • 0.32 mM DMSO+/5 mM Mg−/1 mM Tiro− (#of samples=2) • 0.32 mM DMSO+/5 mM Mg−/1 mM Tiro− (#of samples=2)

GpIIbIIa receptor = target: T2, GpIIbIIa receptor (Homo sapiens, UniProt P05106+P08514); test: Mixed aggregation of washed FPH with washed platelets with and without RGDS; type: cell-based; conditions: 1 mM RGDS
T2 construct: endogenous in cells; host or cells: FPH (freeze-dried human platelet derivatives); in A8 also washed platelets from healthy donors
Experimental: For one of the replicates of each, RGDS was added to achieve a 1 mM concentration. […] The mixture was prepared immediately prior to running on the PAP-8E Platelet Aggregometer. PAP-8E was turned on and samples were incubated with stirring for 10 minutes at 37° C. and HMTA was used as a control for collagen agonist used in aggregation. Stir bars were added to cuvettes and 225 μl of sample was added to cuvettes by reverse pipetting and inserted into channels. Cuvettes were then transferred from warming wells to the testing wells. Run was started for each channel with 10 seconds in between. 25 μl of collagen (Helena Biosciences, helenabiosciences.com) was added to appropriate cuvettes when the timer for the channel reached 8:00 minutes. HMTA was added in place of the agonist to the first channel as a control. After measurement was completed for collagen agonist, each sample was transferred to a microcentrifuge tube and AcT count was taken.

[3] = target: T3, fibrinogen on the surface of FPH (Homo sapiens, UniProt P02671+P02675+P02679); test: Surface marker detection of washed FPH at different plasmin concentrations; type: cell-based; conditions: 0, 1.46, 2.92, 14.6, 29.2 nkat/ml plasmin, 1 hour
T3 construct: endogenous in cells; host or cells: washed FPH (freeze-dried human platelet derivatives)
T3 sequence (P02671 20-629 limits assumed): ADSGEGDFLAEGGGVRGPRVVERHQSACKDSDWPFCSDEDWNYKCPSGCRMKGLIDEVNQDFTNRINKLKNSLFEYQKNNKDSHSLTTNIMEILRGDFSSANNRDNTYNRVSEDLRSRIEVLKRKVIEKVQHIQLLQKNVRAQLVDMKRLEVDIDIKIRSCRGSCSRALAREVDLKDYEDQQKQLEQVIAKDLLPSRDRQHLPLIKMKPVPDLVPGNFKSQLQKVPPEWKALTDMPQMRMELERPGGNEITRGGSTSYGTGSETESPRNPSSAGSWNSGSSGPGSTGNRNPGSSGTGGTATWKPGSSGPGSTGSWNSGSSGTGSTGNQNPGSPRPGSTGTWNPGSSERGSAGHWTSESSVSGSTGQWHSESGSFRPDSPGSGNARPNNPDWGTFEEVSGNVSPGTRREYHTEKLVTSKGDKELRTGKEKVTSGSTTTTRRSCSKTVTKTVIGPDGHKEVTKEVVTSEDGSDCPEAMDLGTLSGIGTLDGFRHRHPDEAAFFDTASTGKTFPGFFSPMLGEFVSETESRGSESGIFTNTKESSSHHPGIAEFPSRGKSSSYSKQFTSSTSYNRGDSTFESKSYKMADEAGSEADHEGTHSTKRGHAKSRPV
T3 sequence (P02675 31-491): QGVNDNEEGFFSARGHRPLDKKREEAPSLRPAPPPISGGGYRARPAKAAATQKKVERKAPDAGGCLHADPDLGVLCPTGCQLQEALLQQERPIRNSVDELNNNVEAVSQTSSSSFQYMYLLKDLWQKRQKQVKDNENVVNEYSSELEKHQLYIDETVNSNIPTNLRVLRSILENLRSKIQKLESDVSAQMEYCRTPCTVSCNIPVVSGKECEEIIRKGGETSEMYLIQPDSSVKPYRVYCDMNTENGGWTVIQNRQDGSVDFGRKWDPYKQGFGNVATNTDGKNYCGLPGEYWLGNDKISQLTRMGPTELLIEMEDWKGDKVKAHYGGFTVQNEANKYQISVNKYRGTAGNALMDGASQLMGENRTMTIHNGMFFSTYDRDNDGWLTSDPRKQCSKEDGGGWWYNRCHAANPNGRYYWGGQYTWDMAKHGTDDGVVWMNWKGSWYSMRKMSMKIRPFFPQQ
T3 sequence (P02679 27-453): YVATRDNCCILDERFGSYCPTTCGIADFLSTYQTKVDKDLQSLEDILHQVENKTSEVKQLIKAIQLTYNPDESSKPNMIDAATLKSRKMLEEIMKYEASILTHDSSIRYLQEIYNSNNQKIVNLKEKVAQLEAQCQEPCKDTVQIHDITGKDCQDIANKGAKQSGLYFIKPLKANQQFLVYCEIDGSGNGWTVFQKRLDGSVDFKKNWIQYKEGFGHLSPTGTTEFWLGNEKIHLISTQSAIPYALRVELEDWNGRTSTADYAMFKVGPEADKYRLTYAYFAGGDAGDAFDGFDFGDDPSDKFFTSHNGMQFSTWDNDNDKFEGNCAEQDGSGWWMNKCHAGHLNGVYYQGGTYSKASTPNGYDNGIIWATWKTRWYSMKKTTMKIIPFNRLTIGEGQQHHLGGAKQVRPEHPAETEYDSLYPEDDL

[4] = tested on: aggregation of washed FPH with washed platelets; test: Mixed aggregation of washed FPH with washed platelets with and without plasmin; type: cell-based, human; conditions: plasmin-treated washed FPH mixed with WPS
Experimental: This was repeated for optimal concentration of plasmin added based on flow results. To initiate spontaneous aggregation between the washed platelets and washed FPH the following steps were performed for the mixed samples. Stir bars were added to cuvettes, 225 μl of sample was added to the cuvettes by reverse pipetting and inserted into channels. The cuvettes were transferred from the warming wells to the testing wells. The run was started for each channel with 10 seconds in between. 25 μl of HMTA was added to all cuvettes once the timer for the channel reached 8:00 minutes. After measurements were completed, each sample was transferred to a microcentrifuge tube and AcT counts were taken.

[5] = tested on: FPH aggregation (surface fibrinogen); test: MgCl2 aggregation dose response after plasmin treatment of FPH; type: cell-based, human; conditions: 0, 2, 5, 10 mM MgCl2, plasmin 1 hour
Experimental: Both master mixes were incubated at room temperature with agitation for 1 hour. […] Magnetic stir bars were placed in all the cuvettes. […] Each concentration of MgCl2 to be tested was prepared in duplicate. […] Plasmin causes the breakdown of fibrinogen.

[6] = washed FPH and washed platelets

## O=C(O)CN(CCN(CC(=O)O)CC(=O)O)CC(=O)O [EDTA]
[1]; washed FPH
  Bound fibrinogen with addition of EDTA: decreases slightly
[1]; [6]
  CD61 (GpIIIa) signal with addition of EDTA: decreased slightly
  drop in the GpIIbIIIa complex (CD41) with addition of EDTA: more than half
Washed platelets (WPS)
  effect on aggregation between washed FPH and washed platelets: prevents aggregation

## O=C(NC[C@H]1CN(c2ccc(N3CCOCC3=O)cc2)C(=O)O1)c1ccc(Cl)s1 [Rivaroxaban]
FXa
  thrombin generation of FPH: decreasing thrombin generation
FXa; 1:64 dilution
  maximum peak time of thrombin generation of FPH: increasing maximum peak time

## CCCCS(=O)(=O)N[C@@H](Cc1ccc(OCCCCC2CCNCC2)cc1)C(=O)O [tirofiban]
[2]
  effect on divalent cation induced aggregation of FPH: abrogated

## Arg-Gly-Asp-Ser (RGDS; printed: Arg-Gly-Asp-Ser) [GpIIbIIa receptor antagonist RGDS peptide]
GpIIbIIa receptor
  effect on mixed aggregation of washed FPH and washed platelets: inhibited aggregation
  fold lower platelet counts in untreated mixed sample in comparison to the treated mixed sample: > 2 fold

B1: plasmin: Plasmin causes the breakdown of fibrinogen (protein, UniProt P00747 20-580; P00747 581-810, looked up)
Plasmin heavy chain A: EPLDDYVNTQGASLFSVTKKQLGAGSIEECAAKCEEDEEFTCRAFQYHSKEQQCVIMAENRKSSIIIRMRDVVLFEKKVYLSECKTGNGKNYRGTMSKTKNGITCQKWSSTSPHRPRFSPATHPSEGLEENYCRNPDNDPQGPWCYTTDPEKRYDYCDILECEEECMHCSGENYDGKISKTMSGLECQAWDSQSPHAHGYIPSKFPNKNLKKNYCRNPDRELRPWCFTTDPNKRWELCDIPRCTTPPPSSGPTYQCLKGTGENYRGNVAVTVSGHTCQHWSAQTPHTHNRTPENFPCKNLDENYCRNPDGKRAPWCHTTNSQVRWEYCKIPSCDSSPVSTEQLAPTAPPELTPVVQDCYHGDGQSYRGTSSTTTTGKKCQSWSSMTPHRHQKTPENYPNAGLTMNYCRNPDADKGPWCFTTDPSVRWEYCNLKKCSGTEASVVAPPPVVLLPDVETPSEEDCMFGNGKGYRGKRATTVTGTPCQDWAAQEPHRHSIFTPETNPRAGLEKNYCRNPDGDVGGPWCYTTNPRKLYDYCDVPQCAAPSFDCGKPQVEPKKCPGR
Plasmin light chain B: VVGGCVAHPHSWPWQVSLRTRFGMHFCGGTLISPEWVLTAAHCLEKSPRPSSYKVILGAHQEVNLEPHVQEIEVSRLFLEPTRKDIALLKLSSPAVITDKVIPACLPSPNYVVADRTECFITGWGETQGTFGAGLLKEAQLPVIENKVCNRYEFLNGRVQSTELCAGHLAGGTDSCQGDSGGPLVCFEKDKYILQGVTSWGLGCARPNKPGVYVRVSRFVTWIEGVMRNN
modifications: Plasmin
notes: Plasmin causes the breakdown of fibrinogen
[3]
  effect on fibrinogen on the surface of FPH: degrades fibrinogen on the surface of FPH
[4]
  effect on aggregation of washed FPH with washed platelets: inhibits the aggregation
[5]
  FPH aggregation response to MgCl2 after plasmin treatment: no dose dependent response
